{"source": "patent US20110166220A1", "about": "“DRONEDARONE FOR THE PREVENTION OF PERMANENT ATRIAL FIBRILLATION” (SANOFI-AVENTIS, priority 2008, published 2011)", "key": {"[1]": {"assay": "Same trial: prevention of cardiovascular hospitalization or death in patients with permanent atrial fibrillation", "type": "in vivo", "description": "The invention is illustrated with the data below. Efficacy of dronedarone and its pharmaceutically acceptable salts versus placebo for the prevention of permanent atrial fibrillation was provided via dronedarone hydrochloride during a prospective, multinational, double-blind, randomized, multi-center, placebo-controlled, parallel group trial. Study drug treatment units (placebo or dronedarone hydrochloride corresponding to 400 mg of base) were such that each patient took one tablet in the morning during or shortly after breakfast and one tablet in the evening during or shortly after dinner. The treatment duration depended on the time of recruitment of each patient in the trial and could be comprised from 12 months to 30 months. From the 4628 patients included in the trial, 2301 were part of the group treated with dronedarone hydrochloride. “Patients with permanent atrial fibrillation or flutter” means patients with a history of atrial fibrillation or atrial flutter, who were in atrial fibrillation or flutter at the time of recruitment but who had not a previous history of permanent atrial fibrillation or flutter and who stayed in permanent atrial fibrillation or flutter during all the trial. The results obtained during this trial were analyzed by the Kaplan Meier method for the figures and the relative risk (RR) was estimated using Cox's proportional effect regression model. The relative risk (RR) is the ratio of the rates of occurrence of a hospitalization or death in patients receiving dronedarone compared with patients receiving a placebo. The percentage reduction x of a given event (hospitalization, death, cardiovascular death and the like) is calculated in the following manner: x=1−relative risk. Of the 4628 patients included in the study, 2301 formed part of the group treated with dronedarone hydrochloride. […] 74 events were recorded in the placebo group against 29 in the group treated with dronedarone hydrochloride. The calculated relative risk is 0.67 with p=0.06, that is a 33% reduction in cardiovascular hospitalizations and deaths under dronedarone hydrochloride."}, "[2]": {"assay": "Prospective, multinational, double-blind, randomized, placebo-controlled, parallel group trial: prevention of permanent atrial fibrillation/flutter", "type": "in vivo", "settings": "of 2301 patients treated; 400 mg of base twice daily with meals, 12 to 30 months; placebo 294; Fischer's exact test p<0.001", "excerpt": "The invention is illustrated with the data below. Efficacy of dronedarone and its pharmaceutically acceptable salts versus placebo for the prevention of permanent atrial fibrillation was provided via dronedarone hydrochloride during a prospective, multinational, double-blind, randomized, multi-center, placebo-controlled, parallel group trial.\nPatients must have a history of atrial fibrillation or atrial flutter and/or may be in normal sinus rhythm or in atrial fibrillation or flutter at the time of recruitment. Recruitment of patients was conducted taking into account the following inclusion criteria:\n1) One of the following risk factors had to be present: • age equal to or greater than 70 years, • hypertension (taking antihypertensives of at least two different classes), • diabetes, • history of cerebral stroke (transient ischemic event or completed cerebral stroke) or of systemic embolism, • left atrial diameter greater than or equal to 50 mm measured by echocardiography, • left ventricular ejection fraction less than 40%, measured by two-dimensional echography; […]"}}, "note": "Counter-ions that a name gives are not always drawn."}
{"smiles": "CCCCc1oc2ccc(NS(C)(=O)=O)cc2c1C(=O)c1ccc(OCCCN(CCCC)CCCC)cc1", "note": "[dronedarone hydrochloride, 2-n-butyl-3-[4-(3-di-n-butylaminopropoxy)benzoyl]-5-methylsulfonamido-benzofuran]", "values": [{"measurement": "events (cardiovascular hospitalization or death) recorded in patients in permanent atrial fibrillation", "setting": "[1]; 178 patients in permanent AF in treated group, placebo 74 events of 294 patients", "result": 29, "unit": "events"}, {"measurement": "relative risk (RR) of cardiovascular hospitalization or death versus placebo", "setting": "[1]; patients in permanent atrial fibrillation, Cox's proportional effect regression model, p=0.06", "result": 0.67}, {"measurement": "reduction in cardiovascular hospitalizations and deaths (x=1-relative risk)", "setting": "[1]; patients in permanent atrial fibrillation, versus placebo, p=0.06", "result": 33, "unit": "%"}, {"measurement": "number of patients with permanent atrial fibrillation/flutter", "setting": "[2]", "result": 178, "unit": "patients"}]}
